Results as given in patent publication US8283322B2, “Formulations for nonsurgical exogenous crosslink therapy” (Orthopeutics, LP, priority 2008, dated 2012).
Entries after “also recorded” stand apart in the source; their conditions may differ.

B1: transglutaminase (protein, UniProt P21980 2-687, looked up)
Protein-glutamine …: AEELVLERCDLELETNGRDHHTADLCREKLVVRRGQPFWLTLHFEGRNYEASVDSLTFSVVTGPAPSQEAGTKARFPLRDAVEEGDWTATVVDQQDCTLSLQLTTPANAPIGLYRLSLEASTGYQGSSFVLGHFILLFNAWCPADAVYLDSEEERQEYVLTQQGFIYQGSAKFIKNIPWNFGQFEDGILDICLILLDVNPKFLKNAGRDCSRRSSPVYVGRVVSGMVNCNDDQGVLLGRWDNNYGDGVSPMSWIGSVDILRRWKNHGCQRVKYGQCWVFAAVACTVLRCLGIPTRVVTNYNSAHDQNSNLLIEYFRNEFGEIQGDKSEMIWNFHCWVESWMTRPDLQPGYEGWQALDPTPQEKSEGTYCCGPVPVRAIKEGDLSTKYDAPFVFAEVNADVVDWIQQDDGSVHKSINRSLIVGLKISTKSVGRDEREDITHTYKYPEGSSEEREAFTRANHLNKLAEKEETGMAMRIRVGQSMNMGSDFDVFAHITNNTAEEYVCRLLLCARTVSYNGILGPECGTKYLLNLNLEPFSEKSVPLCILYEKYRDCLTESNLIKVRALLVEPVINSYLLAERDLYLENPEIKIRILGEPKQKRKLVAEVSLQNPLPVALEGCTFTVEGAGLTEEQKTVEIPDPVEAGEEVKVRMDLLPLHMGLHKLVVNFESDKLKAVKGFRNVIIGPA

Experiments:
[1] = system: homogenized annulus tissue; details: bovine
Description: (§1) Increasing concentrations of protein crosslinkers were added to homogenized annulus tissue and incubated for either 1 hr (EDC, GP, MG, PA and GA), 2 hrs (TG) or 6 hrs (DT and LT). Crosslinking was quantified by determining the amount of hydroxyproline (HYP) released from the tissue by collagenase digestion.
(§2) Homogenized annulus tissue was treated with sub-saturating concentrations of various crosslinkers at varying pH and incubated for either 1 hr (EDC, GP, MG, PA and GA), 2 hrs (TG) or 6 hrs (LT). Crosslinking was quantified by determining the amount of hydroxyproline (HYP) released from the tissue by collagenase digestion.
(§3) In order to determine the effective concentration range for various crosslinking reagents we incubated samples of annulus tissue in increasing concentrations of either genipin (GP), methylglyoxal (MG), proanthrocyanidin (PA), L-threose (LT), D-threose (DT), dimethylaminopropyl) carbodiimide hydrochloride (EDC) or transglutaminase (TG). Crosslinking efficiency was measured indirectly by monitoring the release of peptides containing hydroxyproline upon subsequent digestion with collagenase. Glutaraldehyde (GA), a commonly used, but highly toxic protein crosslinker was used as a positive control.
(§4) To test this hypothesis, the inventors subjected calf annulus fibrosus tissue to crosslinking with sub-saturating levels of our reagents at varying pH. In order to maintain optimal buffering capacity at each pH, different buffers were selected for each point.

[2] = system: homogenized annulus tissue; assay: Crosslinking of annulus tissue quantified by hydroxyproline release upon collagenase digestion; details: for pH: optimized pH for crosslinking; for effect of buffer (EPPS vs Tris) on crosslinking: 100 mM EPPS or 100 mM Tris, GP at pH 9; for effect of phosphate on crosslinking: Tris buffer pH 8, increasing concentrations of sodium phosphate; for pH dependence of crosslinking: sub-saturating crosslinker, pH 4-9 with a different buffer at each pH (FIG. 2, FIG. 3); for concentration at which crosslinking was complete / a plateau was reached: FIG. 1, 1 hr (MG), 6 hrs (DT and LT)
Description: as §1, §2, §3, §4

[3] = at 20° C.; cited from earlier work
[4] = in water; proposed values; cited from earlier work
[5] = saturating crosslinker concentration, Table 5
[6] = sub-saturating MG, 100 mM MOPS pH 7

Molecule | T1/2 [1] [min] | pH ([2]; Table 5) | [Saturating] [2, 5] | pH dependence of crosslinking [2] | concentration at which crosslinking was complete / a plateau was reached [2] | also measured
O=CCCCC=O [Glutaraldehyde, reference compound] | <5 | 8-9 | 1 to 2 mM |  |  | 
proanthrocyanidin | <5 | 5-9 | 0.1% | relatively insensitive to pH |  | effect of buffer (EPPS vs Tris) on crosslinking [2]: did not see any difference; effect of phosphate on crosslinking [2]: did not have any substantial
tris(hydroxymethyl)aminomethane |  |  |  |  |  | pKa [3]: 8.3
O=C[C@H](O)[C@@H](O)CO [L-Threose, L-threose] | 150 | 8-9 | 50 mM | function better in disc tissue at the higher pH levels | approximately 50 mM | max solubility [4]: comparable to MG; effect of buffer (EPPS vs Tris) on crosslinking [2]: did not see any difference
O=C[C@@H](O)[C@H](O)CO [D-Threose, D-threose] |  |  | 50 mM |  | approximately 50 mM | 
CCN=C=NCCCN(C)C.Cl [EDC, 1-ethyl-3-[3-dimethylaminopropyl]carbodiimide hydrochloride] |  | 6 | 2.5 to 5 mM | required a relatively narrow pH range |  | 
CC(=O)C=O [Methylglyoxal, methylglyoxal] | 14 to 20 | 8-9 |  |  | 50 mM | max solubility [4]: about 6 M; enhancement of crosslinking by phosphate ([2]; 100 mM EPPS pH 8, 100 mM potassium phosphate, p=0.1): approximately 3 fold; effect of phosphate on crosslinking [2]: enhance disc tissue crosslinking in a dose-dependent manner; [Saturating] ([2]; at pH 7): 30 to 50 mM; [Saturating] ([2]; at pH 8 (100 mM EPPS buffer), listed as MG): 10 mM; borohydride concentration at which the crosslinking reaction was enhanced [2, 6]: 1 to 5 mM; effect of 10 mM borohydride on crosslinking [2, 6]: inhibitory; borohydride concentration at which enhancement was observed ([2]; sub-saturating MG, EPPS buffer pH 8.0): below 1.5 mM; activity in EPPS when compared to Tris ([2]; sub-saturating MG, pH 8, 100 mM buffer, p<0.0001, n=10): ~2 fold; pH dependence of crosslinking ([2]; listed as MG): function better in disc tissue at the higher pH levels; also recorded: equally efficient at pH 8 and 9; also recorded: marked increase in its crosslinking ability at pH 8 compared to pH 7
B1 |  | 7-8 |  | required a relatively narrow pH range |  | [Saturating] ([2]; 2 hrs incubation, highest concentration tested 2 U/ml): >2 U/ml; [Saturating] ([2]; 2 hrs incubation, highest concentration tested 2 U/ml, listed as TG): > 2 U/ml
